# Patent publication US20100160279A1, “Azetidine Derivatives as Muscarinic Receptor Antagonists” (Pfizer Inc, priority 2006, published 2010)
# Target: T1, human muscarinic M3 receptor (Homo sapiens, UniProt P20309)
# T1 construct: expressed in transfected cells
# Assay: hM3 β-Lac potency assay (cell based β-lactamase, inhibition of carbamyl choline induced signal)
# Settings: CHO cells expressing human M3 receptor with NFAT-β-lactamase reporter; 80 nM carbamyl choline, 4 h; IC50 converted to Ki by Cheng-Prusoff
# Description: M3 potency was determined in CHO-K1 cells transfected with the NFAT-Betalactamase gene. CHO (Chinese Hamster Ovary) cells recombinantly expressing the human muscarinic M3 receptor were transfected with the NFAT_β-Lac_Zeo plasmid.
# The cells were re-suspended at 2×10^5 cells/ml in growth medium (composition as described above). […] Muscarinic M3 receptor signalling was stimulated using 80 nM carbamyl choline (Aldrich N240-9) incubated with the cells for 4 h at 37° C./5% CO2 and monitored at the end of the incubation period using a Tecan SpectraFluor+ plate reader (λ-excitation 405 nm, emission 450 nm and 503 nm). […] Inhibition curves were plotted and IC50 values generated using a 4-parameter sigmoid fit and converted to Ki values using the Cheng-Prusoff correction and the KD value for carbamyl choline in the assay.
# T1 sequence (P20309 whole entry): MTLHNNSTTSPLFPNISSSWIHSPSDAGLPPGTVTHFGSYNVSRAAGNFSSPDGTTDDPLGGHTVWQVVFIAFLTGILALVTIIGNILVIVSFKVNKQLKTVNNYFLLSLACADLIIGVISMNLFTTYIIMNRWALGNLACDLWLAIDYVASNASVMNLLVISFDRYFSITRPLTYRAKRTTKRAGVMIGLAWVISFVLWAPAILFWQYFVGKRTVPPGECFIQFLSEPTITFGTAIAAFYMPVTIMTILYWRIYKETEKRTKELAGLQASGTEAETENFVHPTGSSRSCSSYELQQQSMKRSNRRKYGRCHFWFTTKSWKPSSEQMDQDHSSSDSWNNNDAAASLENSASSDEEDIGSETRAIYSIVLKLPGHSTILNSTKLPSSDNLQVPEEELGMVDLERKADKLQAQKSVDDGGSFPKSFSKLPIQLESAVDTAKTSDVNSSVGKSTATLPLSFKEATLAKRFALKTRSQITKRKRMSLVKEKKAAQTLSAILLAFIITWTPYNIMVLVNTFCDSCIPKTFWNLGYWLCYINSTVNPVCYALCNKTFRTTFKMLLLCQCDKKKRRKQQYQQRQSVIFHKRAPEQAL
row,SMILES,Ki [nM]
1,"CC(C)(CCC(C(N)=O)(c1ccccc1)c1ccccc1)N1CC(NCc2cc(F)ccc2O)C1 [Example 5, 5-[3-(5-Fluoro-2-hydroxy-benzylamino)-azetidin-1-yl]-5-methyl-2,2-diphenyl-hexanoic acid amide]",2.53
2,"CC(C)(CCC(C(N)=O)(c1ccccc1)c1ccccc1)N1CC(NCc2cccc(O)c2)C1 [Example 6, 5-[3-(3-Hydroxy-benzylamino)-azetidin-1-yl]-5-methyl-2,2-diphenyl-hexanoic acid amide]",0.727
3,"CC(C)(CCC(C#N)(c1ccccc1)c1ccccc1)N1CC(NCc2cc(F)ccc2O)C1 [Example 7, 5-[3-(5-Fluoro-2-hydroxy-benzylamino)-azetidin-1-yl]-5-methyl-2,2-diphenyl-hexanenitrile]",4.37
4,"CC(C)(CCC(C#N)(c1ccccc1)c1ccccc1)N1CC(NCc2cc(Cl)ccc2O)C1 [Example 8, 5-[3-(5-Chloro-2-hydroxy-benzylamino)-azetidin-1-yl]-5-methyl-2,2-diphenyl-hexanenitrile]",> 315
5,"CC(C)(CCC(C(N)=O)(c1ccccc1)c1ccccc1)N1CC(NCc2ccccc2O)C1 [Example 9, 5-[3-(2-Hydroxy-benzylamino)-azetidin-1-yl]-5-methyl-2,2-diphenyl-hexanoic acid amide]",0.594
6,"CC(C)(CCC(C(N)=O)(c1ccccc1)c1ccccc1)N1CC(NCc2cc(Cl)ccc2O)C1 [Example 4, 5-[3-(5-Chloro-2-hydroxy-benzylamino)-azetidin-1-yl]-5-methyl-2,2-diphenyl-hexanoic acid amide]",56.8
7,"CC(C)(CCC(C(N)=O)(c1ccccc1)c1ccccc1)N1CC(NCc2ccccc2)C1 [Example 2, 5-(3-Benzylamino-azetidin-1-yl)-5-methyl-2,2-diphenyl-hexanoic acid amide]",0.556
8,"CC(C)(CCC(C(N)=O)(c1ccccc1)c1ccccc1)N1CC(NCc2cccc(O)c2Cl)C1 [Example 3, 5-[3-(2-Chloro-3-hydroxy-benzylamino)-azetidin-1-yl]-5-methyl-2,2-diphenyl-hexanoic acid amide]",2.08

# Second part, the compound after the results:
row,Ki [nM],SMILES
1,0.396,"CC(C)(CCC(C(N)=O)(c1ccccc1)c1ccccc1)N1CC(NCc2ccc(F)c(O)c2)C1 [Example 10, 5-[3-(4-Fluoro-3-hydroxy-benzylamino)-azetidin-1-yl]-5-methyl-2,2-diphenyl-hexanoic acid amide]"
2,0.905,"CC(C)(CCC(C(N)=O)(c1ccccc1)c1ccccc1)N1CC(NCc2ccc(Cl)c(O)c2)C1 [Example 12, 5-[3-(4-Chloro-3-hydroxy-benzylamino)-azetidin-1-yl]-5-methyl-22-diphenyl-hexanoic acid amide]"
3,0.368,"CC(C)(CCC(C(N)=O)(c1ccccc1)c1ccccc1)N1CC(Sc2cccc(O)c2)C1 [Example 15, 5-[3-(3-Hydroxy-phenylsulfanyl)-azetidin-1-yl]-5-methyl-2,2-diphenyl-hexanoic acid amide]"
